“Also recorded” adds a separate entry of the source. Where two headings read alike, the source gives them in different places. Residues, ends and D or L forms follow the SMILES beside them.
Assays:
thrombin = molecular target: T1, thrombin (Bos taurus, UniProt P00735); test: Amidolytic activity of thrombin (chromogenic substrate H-D-Phe-Pip-Arg-pNA); assay type: biochemical; conditions: for IC50: amidolytic activity, Tris pH 8.4, 37 °C, IC50 by extrapolation using a linear plot, error 5%, read-out: IC50 Thrombin
T1 construct: purchased Lubelska Wytwórnia Szczepionek (Lublin, Poland)
Experimental: The determination of amidolytic activity was performed as previously described by Okada. A detailed description of the method is given below: 0.2 mL of the examined peptides (0.15 M NaCl as contro), a buffer, and 0.1 mL of enzyme solution were mixed. The final peptide concentrations were: 0.2 mM, 2 mM, and 20 mM. The mixture was incubated at 37 °C for 3 min; then the synthetic substrate solution was added in the same buffer. […] The mean values from three independent experiments done in duplicate are presented. A method error of 5% was adopted as statistical error. […] IC50 was calculated mathematically by extrapolation using a linear plot.

urokinase = molecular target: T2, urokinase (Homo sapiens, UniProt P00749); test: Amidolytic activity of urokinase (chromogenic substrate pyro-Glu-Gly-Arg-pNA); assay type: biochemical
T2 construct: purchased Sigma (Schnelldorf, Germany)
Experimental: (§1) The determination of amidolytic activity was performed as previously described by Okada. A detailed description of the method is given below: 0.2 mL of the examined peptides (0.15 M NaCl as contro), a buffer, and 0.1 mL of enzyme solution were mixed. The final peptide concentrations were: 0.2 mM, 2 mM, and 20 mM. The mixture was incubated at 37 °C for 3 min; then the synthetic substrate solution was added in the same buffer. After 20 min of incubation, the reaction was stopped by adding 0.1 mL of 50% acetic acid and the absorbance of the released p-nitroaniline was measured at 405 nm. The mean values from three independent experiments done in duplicate are presented. A method error of 5% was adopted as statistical error. IC50 value was considered as the concentration of inhibitor that reduces absorbance by 50%, compared with absorbance measured under the same conditions without an inhibitor. IC50 was calculated mathematically by extrapolation using a linear plot. IC50 values are presented in Table 1 and Table 2, and graphically in Figure 1.
(§2) The buffers and the enzyme solutions included: • Tris buffer—0.6 mL (pH 8.8), enzyme: urokinase (50 units/mL), synthetic substrate: pyro-Glu-Gly-Arg-pNA·HCl (0.1 mL, 3 mM); • Tris buffer—0.5 mL (pH 8.4), enzyme: thrombin (1 units/mL), synthetic substrate: H-D-Phe-Pip-Arg-pNA (0.2 mL, 0.75 mM); • Tris buffer—0.5 mL (pH 7.4), enzyme: plasmin (0.4 units/mL), synthetic substrate: H-D-Val-Leu-Lys-pNA (0.2 mL, 3 mM); • Borate buffer—0.5 mL (pH 7.5), enzyme: trypsin (0.4 units/mL), synthetic substrate: Bzl-L-Arg-pNA·HCl (0.2 mL, 8 mM); • Tris buffer—0.6 mL (pH 9.0), enzyme: kallikrein (3 units/mL), synthetic substrate: H-D-Val-Leu-Arg-pNA·2HCl (0.1 mL, 75 mM); • Tris buffer—0.6 mL (pH 8.4), enzyme: t-PA ([…]), synthetic substrate: H-D-Ile-Pro-Arg-pNA (0.1 mL, 10 mM) • Tris buffer—0.6 mL (pH 9.0), enzyme: chymotrypsin (0.4 units/mL), synthetic substrate: Suc-Phe-pNA (0.2 mL, 8 mM)

plasmin = molecular target: T3, plasmin (Homo sapiens, UniProt P00747); test: Amidolytic activity of plasmin (chromogenic substrate H-D-Val-Leu-Lys-pNA); assay type: biochemical; conditions: for IC50: amidolytic activity, Tris pH 7.4, 37 °C, IC50 by extrapolation using a linear plot, error 5%, read-out: IC50 Plasmin
T3 construct: purchased Chromogenix (Milano, Italy)
Experimental: as §1, §2

[1] = Viability of fibroblast cells, MTT assay; assay type: cell-based, Human; conditions: human, primary dermal fibroblast cells, 24 h, MTT, ± 2, read-out: Viability of fibroblast cells
Experimental: (§3) Viability of fibroblast cells was examined with the use of the MTT assay. MTT, a yellow tetrazole, is reduced to purple formazan only in living cells. Absorbance of the coloured solution was measured by a spectrophotometer.
(§4) These studies were performed on primary dermal fibroblasts cells. The cells were maintained in DMEM supplemented with 10% fetal bovine serum (FBS), 2 mM glutamin, 50 U/mL penicillin and […] streptomycin at 37 °C in a 5% CO2 incubator. For experiments, cells cultures were plated at a density of 1 × 10^6/well in six-well culture plates (Costar, St. Louis, MO, USA) in 2 mL of growth medium. Cells reached about 80% of confluency at day 2 were used for the assays.
(§5) Toxicity of the tested substances was determined using an MTT [3-(4,5-dimethylthiazol-2-yl)-2,5-diphenyltetrazolium bromide)] assay. Palmitoyl and lipoyl peptides were dissolved in DMSO (dimethyl sulfoxide), the other peptides in DMEM, and added to the cell culture medium. Simultaneously, the same concentrations of DMSO without peptides were added to cells, serving as controls. The final peptide concentrations were: 1 μM, 10 μM, and 100 μM. After 24 h incubation, the cells cultured with the tested compounds were washed with phosphate-buffered saline (PBS) and then incubated for 4 h in 2 mL of MTT solution (5 mg/mL). After removing the medium, the cells were lysed in 200 μL of DMSO with 20 μL of Sorensen’s buffer (pH 10.5, 0.1 mol/L glycine with 0.1 mol/L NaCl). The absorbance of converted dye in living cells was measured at a wavelength of 570 nm. The mean values ± SD from three independent experiments done in duplicate are presented.

fibroblast cells = test: DNA biosynthesis, [3H] thymidine incorporation in fibroblasts; assay type: cell-based, Human; conditions: for DNA biosynthesis: 24 h, ± 2
Experimental: In the radioactive method of DNA measurement in the liquid sample, the radioactive activity of the sample was measured. This technique involves mixing a radioactive material with a scintillation fluid/liquid (which contains a scintillator), resulting in photon emission. This emission is counted by a suitable detector.
To examine the effect of the studied compounds on DNA biosynthesis of fibroblast cells, they were plated in 24-well tissue culture dishes at 1 × 10^5 cells per well with 1 mL of growth medium. The plates were incubated after 48 h with the examined peptides and 0.5 μCi of [^3H] thymidine (6.7 Ci/mmol) at 37 °C. The final peptide concentrations were: 10 μM, 50 μM, and 100 μM. After 24 h incubation, the cells were rinsed with PBS three times and twice with 5% trichloroacetic acid. To measure the radioactivity incorporated into DNA, the cells were solubilized with 1 mL of 0.1 M sodium hydroxide containing 1% SDS and an addition of scintillation liquid (9 mL) (https://www.perkinelmer.com/pl/category/scintillation-cocktails). Radioactivity was determined in a scintillation counter, i.e., Liquid Scintillation Analyzer Tri-Carb 2810 TR (Perkin Elmer, Waltham, MA USA)) with Quanto Smart TM software (Perkin Elmer).

Fibroblasts = test: Collagen biosynthesis, 5[3H]-proline incorporation in fibroblasts; assay type: cell-based, Human; conditions: 24 h, ± 2
Experimental: In collagen biosynthesis assays cells were counted in a haemocytometer and incorporation of a radioactive precursor 5[^3H]-proline into collagen was measured. Total protein synthesis was calculated from the sum of radioactivity of collagenase-resistant proteins and collagen digest.
Fibroblasts were cultured in six-well plates until confluence. Then they were incubated for 24 h in growth medium in the absence or presence of the tested peptides and 5[^3H]-proline (5 µCi/mL, 28 Ci/mM). The final peptide concentrations were: 10 μM, 50 μM and 100 μM. In accordance with the method proposed by Peterkofsky and Diegelmann, incorporation of the radioactive precursor into collagen was determined by digesting the proteins with purified Clostridium histolyticum collagenase. Finally, the monolayers were washed with sterile 10mM PBS, pH 7.4 four times, and cell membranes were disrupted using a sonicator. Aliquots of the cell homogenate were removed for protein measurement using the BCA™ Protein Assay Kit (Pierce, Waltham, MA USA). The results are shown as combined values for cell plus medium fractions.

[2] = system: primary dermal fibroblasts cells; test: Viability of fibroblast cells, MTT assay; assay type: cell-based, Human; conditions: MTT, 1-100 μM, 24 h
Experimental: as §3, §4, §5

[3] = amidolytic activity, Tris pH 8.8, 37 °C, IC50 by extrapolation using a linear plot, error 5%, read-out: IC50 Urokinase

T3 sequence (P00747 581-810 limits assumed): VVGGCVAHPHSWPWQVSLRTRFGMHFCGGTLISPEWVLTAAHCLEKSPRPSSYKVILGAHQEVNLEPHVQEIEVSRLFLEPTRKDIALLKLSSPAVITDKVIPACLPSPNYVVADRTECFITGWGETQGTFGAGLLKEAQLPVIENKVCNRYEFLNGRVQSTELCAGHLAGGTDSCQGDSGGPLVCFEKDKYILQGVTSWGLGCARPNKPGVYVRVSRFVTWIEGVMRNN
T3 sequence (P00747 97-580 partner limits assumed): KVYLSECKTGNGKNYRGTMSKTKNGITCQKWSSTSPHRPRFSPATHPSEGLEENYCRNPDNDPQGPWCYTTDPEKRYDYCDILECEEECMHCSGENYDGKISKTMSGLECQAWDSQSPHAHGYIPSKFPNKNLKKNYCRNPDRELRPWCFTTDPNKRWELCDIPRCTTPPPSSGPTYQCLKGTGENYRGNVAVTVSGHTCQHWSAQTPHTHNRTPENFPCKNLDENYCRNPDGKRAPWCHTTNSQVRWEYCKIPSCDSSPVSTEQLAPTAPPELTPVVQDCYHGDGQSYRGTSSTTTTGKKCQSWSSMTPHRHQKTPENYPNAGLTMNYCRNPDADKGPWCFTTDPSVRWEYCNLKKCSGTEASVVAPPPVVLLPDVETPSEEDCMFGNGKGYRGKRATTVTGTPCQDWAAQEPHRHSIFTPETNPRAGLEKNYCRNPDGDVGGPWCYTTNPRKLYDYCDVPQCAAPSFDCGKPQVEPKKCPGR

Row | Molecule | level of inhibition of thrombin activity (thrombin) | IC50 (thrombin) [mM] | level of inhibition of urokinase activity (urokinase) | level of inhibition of plasmin activity (plasmin) | viability at 24 h, 1 µmol/L [1] [%] | viability at 24 h, 10 µmol/L [1] [%] | viability at 24 h, 100 µmol/L [1] [%] | IC50 (urokinase; [3]) [mM] | IC50 (plasmin) [mM] | DNA biosynthesis (fibroblast cells; 10 µmol/L) | DNA biosynthesis (fibroblast cells; 50 µmol/L) | DNA biosynthesis (fibroblast cells; 100 µmol/L) | DNA synthesis (fibroblast cells; 10, 50, 100 μM) | Collagen biosynthesis (Fibroblasts; 10 µmol/L) | Collagen biosynthesis (Fibroblasts; 50 µmol/L) | Collagen biosynthesis (Fibroblasts; 100 µmol/L) | cytotoxicity / cell growth effect on fibroblasts [2] | IC50 (urokinase; converted from IC50 of Table 1, read-out: -logIC50 Urokinase (converted)) [mM]
1 | CCCCCCCCCCCCCCCC(=O)N[C@@H](CCCNC(=N)N)C(=O)N[C@H](C(=O)N[C@H](C(=O)N[C@@H](CCCNC(=N)N)C(=O)N[C@@H](CO)C(=O)O)[C@@H](C)O)[C@@H](C)O [Peptide 20, Pal-Arg-Thr-Thr-Arg-Ser-OH] (HELM PEPTIDE1{[CCCCCCCCCCCCCCCC(=O)[*:2]].R.T.T.R.S}$$$$V2.0) | above 90% | < 0.2 | above 90% | above 90% | 90 | 90 | 103 | – | – | – | – | – | – | – | – | – | – | –
2 | CCCCCCCCCCCCCCCC(=O)N[C@@H](CCCNC(=N)N)C(=O)N[C@H](C(=O)N[C@H](C(=O)N[C@@H](CCCCN)C(=O)N[C@@H](CO)C(=O)O)[C@@H](C)O)[C@@H](C)O [Peptide 28, Pal-Arg-Thr-Thr-Lys-Ser-OH] (HELM PEPTIDE1{[CCCCCCCCCCCCCCCC(=O)[*:2]].R.T.T.K.S}$$$$V2.0) | above 90% | – | above 90% | above 90% | 104 | 103 | 106 | – | – | – | – | – | – | – | – | – | – | –
3 | Ac-KTTKS-NH2 [Peptide 6, Ac-Lys-Thr-Thr-Lys-Ser-NH2] | – | 3.25 ± 0.16 | – | – | 97 | 88 | 86 | > 20 | 2.92 ± 0.15 | – | – | – | – | – | – | – | – | –
4 | Ac-KTTKS-OH [Peptide 2, Ac-Lys-Thr-Thr-Lys-Ser-OH] | – | 2.2 ± 0.11 | – | – | 98 | 88 | 82 | 3.88 ± 0.19 | 2.78 ± 0.14 | – | – | – | – | – | – | – | – | –
5 | Ac-KTTRS-NH2 [Peptide 14, Ac-Lys-Thr-Thr-Arg-Ser-NH2] | – | 2.95 ± 0.15 | – | – | 112 | 135 | 150 | 5.56 ± 0.28 | 5.34 ± 0.27 | 114 % of Control | 96 % of Control | 127 % of Control | an increase in DNA synthesis was observed | 105 % of Control | 171 % of Control | 157 % of Control | exhibited cell growth effects; also recorded: showed proliferative effect; also recorded: exhibited the effect of cell growth | –
6 | Ac-KTTRS-OH [Peptide 10, Ac-Lys-Thr-Thr-Arg-Ser-OH] | – | 2.89 ± 0.14 | – | – | 104 | 100 | 94 | – | 2.24 ± 0.11 | – | – | – | – | – | – | – | – | 4.79
